Experimental data published in ChEMBL document CHEMBL1201862, “PubChem BioAssay data set” (2004).
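1) Cells in 96-well plates. 2) Compound, 48 h, 5 concentrations. 3) Linear interpolation between surrounding doses. 4) Unreached endpoint = highest concentration. The concentration for 50% growth inhibition is given as GI50.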 Activity calls are given as the source filed them. Rule as the data show it: active = GI50 up to about 1.1 µM and inactive = higher.

What was measured:
Experiment in all cases: DTP human tumour cell line panel, 48 h
KM-20L2 = system: KM-20L2
RXF 631 = system: RXF 631
HOP-18 = system: HOP-18
DMS-273 = system: DMS-273
XF498 = system: XF498
SNB-78 = system: SNB-78
DLD-1 = system: DLD-1
DMS-114 = system: DMS-114
BT-549 = system: BT-549

Measured: GI50

NC(=S)N/N=C(\C(=O)Nc1ccc(Cl)c(Cl)c1)C1=NN(c2ccccc2)C(c2cccc([N+](=O)[O-])c2)CC1=O (stereo not drawn)
inactive: KM-20L2 20.7 µM | RXF 631 12 µM | HOP-18 29.1 µM | DMS-273 11.7 µM | XF498 34.3 µM | SNB-78 62.4 µM | DLD-1 19.4 µM | DMS-114 20.7 µM

O=C1C(=O)N(c2cccc(C(F)(F)F)c2)C(=O)C(=O)C1c1nc2ccccc2s1
inactive: KM-20L2 > 100 µM | RXF 631 88.1 µM | HOP-18 63.7 µM | DMS-273 > 100 µM | BT-549 > 100 µM | XF498 > 100 µM | SNB-78 > 100 µM | DLD-1 74.3 µM | DMS-114 45.8 µM

O=C(O)CCc1nn2c(nc1=O)sc1ccc3ccccc3c12
inactive: KM-20L2 > 100 µM | RXF 631 > 100 µM | HOP-18 > 100 µM | DMS-273 > 100 µM | XF498 > 100 µM | SNB-78 > 100 µM | DLD-1 > 100 µM | DMS-114 > 100 µM

CCOC(=O)NC(=O)c1cn(C2OC(COC(=O)CCCCCCCCC(=O)OCC3OC(n4cc(C(=O)NC(=O)OCC)c(=O)[nH]c4=O)C(O)C3O)C(O)C2O)c(=O)[nH]c1=O (stereo not drawn)
inactive: KM-20L2 > 100 µM | RXF 631 > 100 µM | HOP-18 > 100 µM | DMS-273 > 100 µM | XF498 > 100 µM | SNB-78 > 100 µM | DLD-1 > 100 µM | DMS-114 > 100 µM
